Assay results published in patent publication US20220162561A1, “COMPOSITION FOR PROMOTING SECRETION OF EXTRACELLULAR VESICLES” (priority 2019, published 2022).

What was measured:
293T cells [1] = assay: Test Examples 10 and 11: promotion of secretion of extracellular vesicles, Tim4-CD63 / Tim4-CD81 ELISA and nanoparticle tracking analysis; format: cell-based; details: final concentration 0 to 1 μM, 24 hours
Experimental: (§1) After stirring 10 mL of deactivated FBS and 2 mL of a 50% (w/v %) Poly(ethylene glycol) 10,000 solution (#81280 available from Sigma-Aldrich Co., LLC) at 4° C. for 2 hours, extracellular vesicles were precipitated under the centrifugation conditions of 1,500×g at 4° C. for 30 minutes, and the supernatant was recovered to prepare Exosome-free FBS. Next, 293 cells (CRL-1573TM available from ATCC) or 293T cells (CRL-3216TM available from ATCC) were suspended in Advanced DMEM (#12491015 available from Thermo Fisher Scientific K.K.) containing 2% (v/v %) Exosome-free FBS with 2×10^4 cells/200 μL, seeded on an adhesive surface 96-well plate (#3595 manufactured by Corning Inc.) and pre-culture was carried out for 24 hours. After 24 hours, the culture solution was removed, a mixed solution of 199.5 μL of 2% (v/v %) Exosome-free FBS-containing Advanced DMEM and 0.5 μL (final concentration: 0 to 1 μM) of the compound of Example 1, 5 or 9 prepared in DMSO was added thereto, and the cells were cultured for 24 hours. Thereafter, the culture solution was recovered in a 1.5 mL tube, the cells were precipitated under centrifugation conditions of 300×g at 4° C. for 5 minutes, and the culture supernatant was recovered. Subsequently, the recovered culture supernatant was subjected to centrifugation under the conditions of 2,000×g at 4° C. for 20 minutes to precipitate cell fragments, and the supernatant was recovered. Further, the recovered supernatant was subjected to centrifugation under the conditions of 10,000×g at 4° C. for 30 minutes, and the supernatant was recovered. For detection of the extracellular vesicles contained in the supernatant after centrifugation of 10,000×g, Tim4-human CD63 ELISA method and Tim4-human CD81ELISA method mentioned later was used.
(§2) <Tim4-Human CD63 ELISA Method>100 μL/well of 1 μg/mL Tim4 protein prepared in Carbonate Buffer (solution containing 71.4 mM NaHCO3 and 28.6 mM Na2CO3) was added to a 96-well plate (#3801-096 manufactured by IWAKI & CO., LTD.) and made it a solid phase. After washing the 96-well plate with a TBST solution, 200 μL/well of the TBST solution containing 1% (w/v %) BSA was added thereto and a blocking treatment for 1 hour was carried out. Next, 90 μL of the supernatant recovered as mentioned above was added to the well, and 10 μL of a 20 mM CaCl2) solution was further added to bind the extracellular vesicles to the Tim4 protein. Subsequently, 100 μL/well of 1 μg/mL Anti-human CD63 Antibody (#353014 available from BioLegend Inc.) diluted with the TBST solution containing 2 mM CaCl2) was added thereto and the reaction was carried out for 1 hour. 200 μL/well of the TBST solution containing 2 mM CaCl2) was added thereto, and thereafter, the TBST solution was removed. […]

293 cells [2] = assay: as above; format: cell-based; details: final concentration 0 to 1 μM, 24 hours
Experimental: as §1, §2

U-87 MG cells [3] = assay: Test Example 1: promotion of secretion of extracellular vesicles, Tim4-CD9 / Tim4-CD63 ELISA of culture supernatant; format: cell-based; details: 24 hours
Experimental: For the detection of extracellular vesicles contained in the culture supernatant, the Tim4-CD63 ELISA method or Tim4-CD9 ELISA method mentioned later was used.
To a 384-well plate (#464718 manufactured by Thermo Fisher Scientific K.K.) was added 1 μg/mL Tim4 protein prepared in Carbonate Buffer (a solution containing 71.4 mM NaHCO3 and 28.6 mM Na2CO3), and it was made a solid phase. The 384-well plate was washed with a 0.05% (v/v %) Tween 20-containing TBS (Tris-Buffer Saline) solution (hereinafter sometimes referred to as “TBST solution”), and then, 50 μL/well of a TBST solution containing 1% (w/v %) BSA was added thereto to carry out a blocking treatment for 1 hour. Next, 30 μL of the culture supernatant recovered above was added to the well, and further 10 μL of an 8 mM CaCl2) solution was added thereto to bind extracellular vesicles to the Tim4 protein. At this time, as a comparative object, a compound-untreated culture supernatant (solvent alone, control) was added to the Tim4 protein solid-phased plate in the same manner. Subsequently, 30 μL/well of 1 μg/mL Anti-human CD63 Antibody (#353014 available from BioLegend Inc.) diluted with a TBST solution containing 2 mM CaCl2) was added thereto and the mixture was reacted for 1 hour. To the mixture was added 50 μL/well of a TBST solution containing 2 mM CaCl2), and then, the TBST solution was removed. After repeating this operation three times, 30 μL/well of 80 ng/mL HRP-conjugated Anti-mouse IgG (#405306 available from BioLegend Inc.) diluted with a TBST solution containing 2 mM CaCl2) was added thereto and the mixture was reacted for 1 hour. Finally, 30 μL/well of a TMB solution (#05298-80 available from Nacalai Tesque Inc.) was added to the mixture and the mixture was reacted for 30 minutes, and then, 30 μL/well of a 1M H2504 solution was added thereto to stop the reaction and by measuring an absorbance at 450 nm to detect the amount of the extracellular vesicles. A relative value when the compound-untreated group (control) was made 1 was calculated. […]

293T cells [4] = assay: Test Example 12: cytotoxicity, LDH activity in culture supernatant; format: cell-based; details: concentration of at least about 0.3 μM or less
Experimental: (§3) After stirring 10 mL of deactivated FBS and 2 mL of a 50% (w/v %) Poly(ethylene glycol) 10,000 solution (#81280 available from Sigma-Aldrich Co., LLC) at 4° C. for 2 hours, extracellular vesicles were precipitated under the centrifugation conditions of 1,500×g at 4° C. for 30 minutes, and the supernatant was recovered to prepare Exosome-free FBS. Next, 293 cells (CRL-1573TM available from ATCC) or 293T cells (CRL-3216TM available from ATCC) were suspended in Advanced DMEM (#12491015 available from Thermo Fisher Scientific K.K.) containing 2% (v/v %) Exosome-free FBS with 2×10^4 cells/200 μL, seeded on an adhesive surface 96-well plate (#3595 manufactured by Corning Inc.), and pre-culture for 24 hours was carried out. […] The activity of lactate dehydrogenase (LDH) contained in the culture supernatant was measured using
(§4) Cytotoxicity LDH Assay Kit-WST (#CK12 manufactured by Dojindo Laboratories). […] The reaction was stopped by adding 25 μL of Stop Solution, and the cytotoxicity was evaluated by measuring the absorbance at 490 nm. The activities of LDH of the dead cell group (sample to which 20 μL of Lysis Buffer was added to compound-untreated cells 15 minutes before recovery of the culture solution) and the culture solution (culture solution in which no cell culture was carried out) were also measured in the same manner, and cytotoxicity of each compound was evaluated.

U-87 MG cells [5] = details: concentration of at least about 2 μM or less
Experimental: After stirring 10 mL of deactivated FBS and 2 mL of a 50% (w/v %) Poly(ethylene glycol) 10,000 solution (#81280 available from Sigma-Aldrich Co., LLC) at 4° C. for 2 hours, extracellular vesicles were precipitated under the centrifugation conditions of 1,500×g at 4° C. for 30 minutes, and the supernatant was recovered to prepare Exosome-free FBS.

293 cells [6] = assay: Test Example 12: cytotoxicity, LDH activity in culture supernatant; format: cell-based; details: concentration of at least about 0.3 μM or less
Experimental: as §3, §4

Row | Structure (SMILES) | amount of secretion of CD63 and/or CD81-positive extracellular vesicles (293T cells [1]) | amount of secretion of CD63 and/or CD81-positive extracellular vesicles (293 cells [2]) | secretion of CD9 and/or CD63-positive extracellular vesicles (U-87 MG cells [3]; 5 μM) | secretion of CD63-positive extracellular vesicles (U-87 MG cells [3]; 5 μM) | cytotoxicity (LDH amount in the culture supernatant) (293T cells [4]) | cytotoxicity to U-87 MG cells (LDH amount in the culture supernatant) (U-87 MG cells [5]) | cytotoxicity (LDH amount in the culture supernatant) (293 cells [6]) | secretion of CD9 and/or CD63-positive extracellular vesicles (U-87 MG cells [3]; 10 μM)
1 | COC1=CC(c2cc3ccccc3[nH]2)=N/C1=C\c1[nH]c(C)cc1C.CS(=O)(=O)O [Example 5, Obatoclax Mesylate] | promotes | promotes | promotes secretion | strongly promoted secretion |  |  |  | 
2 | CC(=O)O.Cc1cc2c(C(C)C)c(O)c(O)c(C=O)c2c(O)c1-c1c(C)cc2c(C(C)C)c(O)c(O)c(C=O)c2c1O (racemic) [Example 1, (±)-Gossypol Acetate] | promotes | promotes |  |  | low cytotoxicity | low | low cytotoxicity | strongly promoted secretion
